Values quoted from earlier work as cited in patent US20110086074A1, “COMBINATIONS OF NIACIN AND AN OXICAM” (DR. REDDY'S LABORATORIES LTD., priority 2008, published 2011).

What was measured:
[1] = n-octanol/pH 7.4 buffer

| Apparent partition coefficient [1] | Solubility in methanol (methanol) | Solubility in water | SMILES | Solubility in strong acids and bases (strong acids and bases, compared with water) |
| --- | --- | --- | --- | --- |
| 0.1 | very slightly soluble in methanol | practically insoluble in water | Cc1cnc(NC(=O)C2=C(O)c3ccccc3S(=O)(=O)N2C)s1 [Meloxicam, 4-hydroxy-2-methyl-N-(5-methyl-2-thiazolyl)-2H-1,2-benzothiazine-3-carboxamide-1,1-dioxide] | higher solubility observed in strong acids and bases |
| – | – | very soluble in water | O=C(O)c1cccnc1 [Niacin, 3-pyridinecarboxylic acid] | – |
